Drawing on patent US10308660B2, “Compounds and compositions for inhibiting the activity of SHP2” (Novartis AG, priority 2015, dated 2019), this text covers IC50 for 49 compounds.

Broadly, the IC50 is the concentration that gives 50% inhibition.

This experiment has as its target SHP2 (Homo sapiens (Human), UniProt Q06124). Nature of the experiment: SHP2 allosteric inhibition assay (DiFMUP prompt fluorescence). The settings on record: 0.5 nM SHP2 activated with 0.5 μM peptide IRS1_pY1172(dPEG8)pY1222; substrate DiFMUP; 25° C. Type of experiment: biochemical.

SHP2, sequence (Q06124 whole entry): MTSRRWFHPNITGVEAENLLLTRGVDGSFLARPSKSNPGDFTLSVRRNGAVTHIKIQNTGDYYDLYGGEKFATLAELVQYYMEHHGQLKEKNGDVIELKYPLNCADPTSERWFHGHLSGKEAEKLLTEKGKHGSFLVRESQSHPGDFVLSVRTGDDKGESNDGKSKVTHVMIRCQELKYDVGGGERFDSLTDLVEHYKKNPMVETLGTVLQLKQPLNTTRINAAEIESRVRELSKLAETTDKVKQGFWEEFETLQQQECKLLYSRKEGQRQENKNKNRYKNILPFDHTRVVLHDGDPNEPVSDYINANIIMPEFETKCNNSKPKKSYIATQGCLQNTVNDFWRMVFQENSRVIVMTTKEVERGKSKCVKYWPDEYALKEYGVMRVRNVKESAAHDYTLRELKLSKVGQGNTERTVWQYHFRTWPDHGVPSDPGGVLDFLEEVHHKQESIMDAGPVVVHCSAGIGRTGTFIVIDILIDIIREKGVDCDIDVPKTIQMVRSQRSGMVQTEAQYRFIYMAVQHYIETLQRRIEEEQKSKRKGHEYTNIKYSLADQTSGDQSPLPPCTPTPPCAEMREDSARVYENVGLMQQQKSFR

Turning to `C[C@@H]1CC2(CCN(c3nc(N)c(-c4cccc(Cl)c4Cl)c(=O)n3C)CC2)[C@H](N)C1(F)F` [Example 167], the IC50 came out at 89 nM.

For `Cc1nc(N2CCC3(CC2)CO[C@@H](C)[C@H]3N)n(C)c(=O)c1-c1ccccc1` [Example 197], the half-maximal inhibitory concentration (IC50) came to 369 nM. This IC50 is about 4.1-fold higher than that of the compound before.

In turn, `C[C@H]1C[C@@H](N)C2(CCN(c3nc(N)c(-c4ccc(SC(F)(F)F)cc4)c(=O)n3C)CC2)C1` [Example 134] had a concentration for half-maximal inhibition (IC50) of 19 nM.

In the case of `C[C@@H]1OCC2(CCN(c3nc(N)c(-c4ccc(C(C)(C)C)cc4)c(=O)n3C)CC2)[C@@H]1N` [Example 174], half-maximal inhibition (IC50) required 183 nM. `COc1cccc(Sc2c(N)nc(N3CCC4(CC3)CO[C@@H](C)[C@H]4N)n(C)c2=O)c1Cl` [Example 20]: inhibition was half-maximal at 17 nM (IC50). `CC1(CN)CCN(c2ccc(Sc3cccc(Cl)c3Cl)c(=O)[nH]2)CC1` [Example 118, 6-(4-(aminomethyl)-4-methylpiperidin-1-yl)-3-((2,3-dichlorophenyl)thio)pyridin-2(1H)-one] showed a 50% inhibitory concentration (IC50) of 108 nM. Compared with the last compound, the IC50 is about 6.4-fold higher. Turning to `C[C@@H]1OCC2(CCN(c3ncc(-c4cccc(Cl)c4Cl)c(=O)[nH]3)CC2)[C@@H]1N` [Example 201], the IC50 amounted to 3340 nM. As to `Cn1c(N2CCC3(CC2)CC(F)(F)C[C@H]3N)nc(N)c(Sc2ccccc2Cl)c1=O` [Example 85], the 50% inhibitory concentration (IC50) was determined as 77 nM. Against the preceding compound, the IC50 is about 43-fold lower. `C[C@@H]1CC2(CCN(c3nc(N)c(Sc4ccnc(N)c4Cl)c(=O)n3C)CC2)[C@H](N)C1(F)F` [Example 34] showed an IC50 of 57 nM.

In the case of `Cn1c(N2CCC3(CC2)COC[C@H]3N)nc(N)c(Sc2cccc(Cl)c2Cl)c1=O` [Example 72], the IC50 came out at 33 nM. Regarding `Cn1c(N2CCC(C)(CN)CC2)nc(N)c(Sc2cccnc2C(F)(F)F)c1=O` [Example 7], inhibition was half-maximal at 109 nM (IC50). This IC50 lies about 3.3-fold higher than the previous one.

The compound `C[C@@H]1OCC2(CCN(c3nc(N)c(-c4ccc(F)c(Cl)c4)c(=O)n3C)CC2)[C@@H]1N` [Example 158] gave a 50% inhibitory concentration (IC50) of 53 nM. Compared with the last compound, the IC50 is about 2.1-fold lower. `C[C@@H]1OCC2(CCN(c3nc(N)c(Sc4cc(N)nc(Cl)c4Cl)c(=O)n3C)CC2)[C@@H]1N` [Example 19]: the IC50 was 14 nM.

In the case of `Cn1c(N2CCC3(CC2)COC[C@H]3N)nc(N)c(Sc2cccnc2C(F)(F)F)c1=O` [Example 63], the 50% inhibitory concentration (IC50) worked out at 34 nM. Turning to `C[C@@H]1OCC2(CCN(c3ncc(Sc4cccc(Cl)c4Cl)c(=O)n3C)CC2)[C@@H]1N` [Example 103], the IC50 came out at 15 nM. On to `Cn1c(N2CCC(C)(CN)CC2)nc(N)c(Sc2ccccc2OC(F)(F)F)c1=O` [Example 46], for which half-maximal inhibition (IC50) required 89 nM. This IC50 lies about 5.9-fold higher than the previous one.

For `COc1cccc(Sc2c(N)nc(N3CCC(C)(CN)CC3)n(C)c2=O)c1Cl` [Example 9], the IC50 stood at 47 nM.

Compound `CC[C@@H]1OCC2(CCN(c3nc(N)c(Sc4cccnc4C(F)(F)F)c(=O)n3C)CC2)[C@@H]1N` [Example 87] had a 50% inhibitory concentration (IC50) of 21 nM.

Take `C[C@@H]1OCC2(CCN(c3ncc(Sc4cccc(Cl)c4Cl)c(=O)[nH]3)CC2)[C@@H]1N` [Example 97]: half-maximal inhibition (IC50) required 9 nM. As for `Cn1c(N2CCC3(CC2)CC(F)(F)C[C@H]3N)nc(N)c(Sc2cccnc2C(F)(F)F)c1=O` [Example 43], the midpoint of inhibition, the IC50, lay at 18 nM. This IC50 lies about 2-fold higher than the previous one. Compound `Cn1c(N2CCC3(CC2)C[C@H](F)C[C@H]3N)nc(N)c(Sc2ccnc(N)c2Cl)c1=O` [Example 36] displayed a concentration for half-maximal inhibition (IC50) of 69 nM. As for `C[C@H]1C[C@@H](N)C2(CCN(c3nc(N)c(Sc4cc(N)nc(Cl)c4Cl)c(=O)n3C)CC2)C1` [Example 70], the figure is 11 nM; as for `Cc1ccc(-c2c(N)nc(N3CCC4(CC3)C[C@@H](C)C[C@H]4N)n(C)c2=O)cc1Cl` [Example 124], 10 nM; as for `CC[C@@H]1OCC2(CCN(c3nc(N)c(-c4ccccc4)c(=O)n3C)CC2)[C@@H]1N` [Example 144], 34 nM. In turn, `N[C@@H]1CCCC12CCN(c1ncc(-c3cccc(Cl)c3Cl)c(=O)[nH]1)CC2` [Example 202] had an IC50 of 782 nM. With `C[C@@H]1OCC2(CCN(c3nc(N)c(Sc4ccncc4C(F)(F)F)c(=O)n3C)CC2)[C@@H]1N` [Example 61], the IC50 stood at 93 nM. `C[C@@H]1OCC2(CCN(c3nc(N)c(-c4ccc(OCC5CC5)cc4)c(=O)n3C)CC2)[C@@H]1N` [Example 147] returned an IC50 of 39 nM. Compared with the last compound, the IC50 is about 2.4-fold lower. In the case of `COc1cccc(Sc2cnc(N3CCC4(CC3)CO[C@@H](C)[C@H]4N)n(C)c2=O)c1Cl` [Example 106], inhibition was half-maximal at 30 nM (IC50). The IC50 values of the last two compounds are within 1.5-fold of each other. Regarding `C[C@@H]1OCC2(CCN(c3nc(N)c(Sc4ccnc(N5CCCC5)c4Cl)c(=O)n3C)CC2)[C@@H]1N` [Example 28], the IC50 worked out at 28 nM. The IC50 values of the last two compounds are within 1.5-fold of each other. As for `C[C@@H]1OCC2(CCN(c3nc(N)c(-c4ccc(F)cc4F)c(=O)n3C)CC2)[C@@H]1N` [Example 156], the figure is 48 nM. Compound `COc1ccc(-c2c(N)nc(N3CCC4(CC3)CO[C@@H](C)[C@H]4N)n(C)c2=O)cc1Cl` [Example 162] registered a 50% inhibitory concentration (IC50) of 66 nM.

In the case of `C[C@@H]1OCC2(CCN(c3nc(N)c(-c4cc(Cl)cc(Cl)c4Cl)c(=O)n3C)CC2)[C@@H]1N` [Example 180], the half-inhibitory concentration (IC50) was determined as 515 nM.

Compound `C[C@@H]1OCC2(CCN(c3nc(N)c(-c4cccc(Cl)c4)c(=O)n3C)CC2)[C@@H]1N` [Example 135] gave an IC50 of 19 nM. In turn, `Cc1ncccc1-c1c(N)nc(N2CCC3(CC2)CO[C@@H](C)[C@H]3N)n(C)c1=O` [Example 183] came in with a half-maximal inhibitory concentration (IC50) of 1590 nM. This IC50 is about 84-fold higher than that of the compound before. On to `C[C@@H]1OCC2(CCN(c3ncc(Sc4cc(N)nc(Cl)c4Cl)c(=O)n3C)CC2)[C@@H]1N` [Example 112], for which it took 19 nM to reach half-maximal inhibition (IC50). `CC1(CN)CCN(c2ncc(Sc3cccc(Cl)c3Cl)c(=O)[nH]2)CC1` [Example 93] displayed an IC50 of 65 nM. The compound `Cn1c(N2CCC(C)(CN)CC2)ncc(Sc2ccccc2C(F)(F)F)c1=O` [Example 108] had an IC50 of 500 nM. In the case of `C[C@@H]1OCC2(CCN(c3nc(N)c(-c4ccc(OCc5ccccc5)cc4)c(=O)n3C)CC2)[C@@H]1N` [Example 149], 43 nM corresponded to half-maximal inhibition (IC50).

In the case of `C[C@@H]1CC2(CCN(c3nc(N)c(-c4ccccc4)c(=O)n3C)CC2)[C@H](N)C1(F)F` [Example 165], the IC50 came out at 78 nM. As for `Cn1c(N2CCC(C)(CN)CC2)nc(N)c(Sc2ccccc2C#N)c1=O` [Example 51], the figure is 391 nM. For `C[C@@H]1OCC2(CCN(c3nc(N)c(Sc4cccc(N)c4C(F)(F)F)c(=O)n3C)CC2)[C@@H]1N` [Example 31], half-maximal inhibition (IC50) required 20 nM. This IC50 lies about 20-fold lower than the previous one. In turn, `C[C@@H]1OCC2(CCN(c3ccc(Sc4cccc(Cl)c4Cl)c(=O)[nH]3)CC2)[C@@H]1N` [Example 120] registered a half-inhibitory concentration (IC50) of 15 nM.

`C[C@H]1C[C@@H](N)C2(CCN(c3nc(N)c(Sc4cccnc4Cl)c(=O)n3C)CC2)C1` [Example 66] came in with an IC50 of 20 nM. The compound `C[C@@H]1OCC2(CCN(c3nc(N)c(Sc4ccccc4)c(=O)n3C)CC2)[C@@H]1N` [Example 26] displayed a 50% inhibitory concentration (IC50) of 82 nM. As for `Cn1c(N2CCC3(CC2)COC[C@H]3N)nc(N)c(Sc2ccnc(N)c2Cl)c1=O` [Example 16], the figure is 22 nM; as for `Cn1c(N2CCC3(CCC[C@H]3N)CC2)ncc(Sc2cccc(Cl)c2Cl)c1=O` [Example 109], 26 nM; as for `C[C@@H]1OCC2(CCN(c3nc(N)c(Sc4ccnc(N)c4Cl)c(=O)n3C)CC2)[C@@H]1N` [Example 3], 44 nM.

As for `Cn1c(N2CCC3(CCC[C@H]3N)CC2)nc(N)c(-c2ccccc2)c1=O` [Example 191], the midpoint of inhibition, the IC50, lay at 27 nM. Against the preceding compound, the IC50 is about 1.6-fold lower. The compound `CCOc1nccc(Sc2cnc(N3CCC4(CC3)CO[C@@H](C)[C@H]4N)n(C)c2=O)c1Cl` [Example 102] had an IC50 of 10 nM.
